# Assays:
# [1] = system: FLG monomer; assay: FLG monomer-producing effect in atopic dermatitis mouse model (NC/Nga), Western blotting (Example 15); type: in vivo; settings: oral 0.75 mg every other day, 2 weeks, ear epidermis
# Experimental: Experiments were conducted with raising 6- to 10-week-old atopic dermatitis-developing NC/Nga mice with mites (Japan SLC, Inc.) under a normal environment. Namely, 500 μl of a solution obtained by dissolving Compound 1 at 1.5 mg/ml in a methyl cellulose solution (0.5 W/V % Methyl Cellulose 400 Solution, Wako, 133-14255) were orally administered to an NC/Nga mouse developing dermatitis majorly in the ear auricles and the head (0.75 mg of Compound 1 was administered to the mouse per time) every other day. As a control, 500 μl of the methyl cellulose solution was orally administered every other day. The experiments were conducted by using five mice in each of a Compound 1-administered group and a control group.
# 2 weeks after the beginning of administration, ears of each mouse were cut under anesthesia, the skin of the cut ear was peeled off by pinching cartilage, and the skin on the dermal side was soaked in PBS containing 20 mM EDTA at 37° C. for 30 minutes. Next, the epidermis of the ear was peeled off and […] of Lysis buffer (0.1 M Tris-HCl (pH 9.0), 6 M Urea, 1% 2-mercapto-ethanol, 1% SDS, 1 mM EDTA, and Protease inhibitor cocktail) were added to the epidermis. The epidermis was homogenized with an electrically powered pestle, and the homogenized cells were centrifuged at 15,000 rpm at 4° C. for 20 minutes. […]
# [2] = system: atopic dermatitis mouse model (NC/Nga); assay: Dermatitis-alleviating effect in atopic dermatitis mouse model (NC/Nga) (Example 14); type: in vivo
# Experimental: Experiments were conducted with raising 6- to 10-week-old atopic dermatitis-developing NC/Nga mice with mites (Japan SLC, Inc.) under a normal environment. Namely, the dermatitis-alleviating effect was measured by the oral administration of 500 μl of a solution obtained by dissolving Compound 1 at 0.75 mg/ml in a methyl cellulose solution (0.5 W/V % Methyl Cellulose 400 Solution, Wako, 133-14255) to an NC/Nga mouse developing dermatitis majorly in the ear auricles and the head (0.375 mg of Compound 1 was administered to the mouse per time) every other day. As a control, 500 μl of the methylcellulose solution were administered orally every other day.
# With regard to clinical manifestations, the evaluation was conducted on a four-point scale of none (0), weak (1), moderate (2), and severe (3) by visual inspection for four items of erythema, edema, erosion, and squama. The evaluated values of the four items were summed to give a score before the start of oral administration (0 wk), 4 weeks after the oral administration (4 wk), and 8 weeks after the oral administration (8 wk), and then the clinical manifestations of a mouse model were measured as a clinical score. Further, the oral administration was ended 8 weeks after the start of oral administration, and thereafter, the mouse was continued to be kept under the same conditions. 4 weeks after the end of oral administration (12 wk after the start of oral administration), clinical manifestations were scored in the same manner.
# A TEWL was measured 8 and 12 weeks after the start of oral administration in the above-mentioned section (i) using a tape type closed chamber system water transpiration measuring instrument VAPO SCAN AS-VT100RS (ASAHI BIOMED) according to the manufacturer's manual.
# The appearances of the developing NC/Nga mice 12 weeks after the start of oral administration (the oral administration was ended 8 weeks after the start of oral administration) in (i) described above were shown in FIGS. 16(a) and 16(b).
# [3] = system: GPR22; assay: G protein-coupled receptor (GPCR) array in NHEK cells, GPR22 (Example 3); type: cell-based, human; settings: Compound 1 1 μM, 3 days
# Experimental: (§1) In this example, the expression-increasing effect of Compound 1 on a GPCR in NHEK cells was confirmed by using a GPCR array.
# (§2) 1) 5×10^4 cells/well of NHEK cells (Invitrogen) were plated on a 24-well plate, and then 500 μl of a culture medium containing a medium for proliferating normal human epidermal keratinocytes (HuMedia-KG2, KURABO INDUSTRIES LTD.) supplemented with hEGF (0.1 ng/ml), insulin (10 μg/ml), hydrocortisone (0.5 μg/ml), gentamycin (50 μg/ml), amphotericin B (50 ng/ml), and bovine brain pituitary extract (BPE) (0.4%, v/v) were added to the plate, and the cells were cultured under the conditions of 37° C. and 5% CO2 for from 3 to 4 days until the 80 to 85% confluent state was achieved.
# (§3) 2) Next, a DMSO solution of Compound 1 was added to the medium at 1 μM per well, and culture was further conducted for 3 days without changing the medium. In addition, regarding the system to which only CaCl2 (1.5 mM in terms of Ca) as Ca was added and the system to which both Compound 1 and CaCl2 (1.5 mM in terms of Ca) as Ca were added, the culture was conducted in a similar manner for 3 days. As a control example, a solvent only (vehicle) was added.
# 3) An extraction reagent (TRIzol™, Invitrogen) was used, and according to the manufacturer's protocol, total RNA was extracted from each of cells treated in the step 2). […]
# [4] = system: GPR142; assay: G protein-coupled receptor (GPCR) array in NHEK cells, GPR142 (Example 3); type: cell-based, human; settings: Compound 1 1 μM, 3 days
# Experimental: as §1, §2, §3
# 3) An extraction reagent (TRIzol™, Invitrogen) was used, and according to the manufacturer's protocol, total RNA was extracted from each of cells treated in the step 2). A reverse transcriptase reagent (Prime Script™, Takara) was used, and according to the manufacturer's protocol, cDNA was prepared from the total RNA. Next, a TaqMan™ human GPCR array (AB 4365295, Applied Biosystems) was used, and the analysis was conducted by an ABI PRISM™ 7900HT gene analyzer (Applied Biosystems). The result of measurement was shown as the comparison of the cycle number (ΔCt value) to 18S ribosomal RNA as a control (comparative Ct method).
# [5] = CaCl2 1.5 mM in terms of Ca, control 29.2
structure (smiles),measurement,setting,value
"CCc1ccc(OCc2ccccc2C(=O)Nc2ccc3nc(C)cc(N)c3c2)cc1.Cl [Compound 1, N-(4-Amino-2-methyl-6-quinolyl)-2-[(4-ethylphenoxy)methyl]benzamide hydrochloride]",production of FLG monomer (relative to GAPDH),[1],clearly promoted the production of FLG monomer
same,appearance of developing NC/Nga mouse,"[2]; 12 weeks after start of oral administration, 4 weeks after the end",almost good clinical manifestations were kept
same,amount of water transpiration (TEWL),"[2]; NC/Nga mouse, 4 weeks after the end of oral administration (12 weeks after the start)",suppressed as compared to the control
same,clinical manifestations of dermatitis (clinical score),"[2]; NC/Nga mouse, 4 weeks after the end of oral administration (12 wk after the start)",symptoms of dermatitis were suppressed as compared to the control
same,clinical manifestations of dermatitis (clinical score),"[2]; NC/Nga mouse, oral 0.375 mg every other day, 8 weeks after the start of oral administration",symptoms of dermatitis were alleviated
same,transepidermal water loss (TEWL),"[2]; developing NC/Nga mouse, oral 0.375 mg every other day, after 8 weeks, control about 60",about 10 g/h·m^2
same,"GPR22 mRNA expression (GPCR array), in words",[3]; Ca 1.5 mM,expression was induced
same,GPR22: cycle number (ΔCt value) to 18S ribosomal RNA,[3]; [5],6.7
same,"GPR142 mRNA expression (GPCR array), in words",[4]; Ca 1.5 mM,expression was induced
same,GPR142: cycle number (ΔCt value) to 18S ribosomal RNA,[4]; [5],−4.9
